# Data taken from patent US9133232B2, “Fused pentacyclic polyethers” (priority 2003, dated 2015).
# Read-outs that look alike come from different tables or passages of the source.
# Key:
# [1] = biological target: rat brain synaptosome; assay: Competitive rat brain synaptosome assay (displacement of tritiated brevetoxin PbTx-2); type: binding; conditions: for Ki / EC50: competition with tritiated PbTx-2; for EC50: read-out: approximate EC50; for displacement of tritiated brevetoxin PbTx-2: compound added at about 1000× the concentration of the tritiated PbTx-2
# Experimental: Competitive rat brain synaptosome assays were performed as described in Poli et al., 1986. […];
# [2] = test system: Male mosquito fish; type: in vivo; conditions: for death of fish exposed to brevenal alone: monitored 24 h
# Experimental: Male mosquito fish (n=104) were used in this assay. Fish were placed individually in 50 mL beakers containing 20 mL water. The test compounds (PbTx-2 and brevenal) were dissolved in EtOH at a concentration of 0.1 mg/mL and added to the fish in a total of 200 μL EtOH. The control fish received 200 uL EtOH. Fish were exposed to toxin alone (1 μg/mL water), brevenal alone (1 or 2 μg/mL water), or both brevenal (1.0 μg/mL water and toxin (1.0 μg/mL water) with the brevenal being added 3 min. before the toxin. After addition of the difference compounds the fish were monitored for 24 h. or until the time of death. Significant differences were determined using a two-way Student's t-test.
Compound,Ki [1],EC50 [1],displacement of tritiated brevetoxin PbTx-2 [1],"time of death after exposure, fish given brevenal and PbTx-2 ([2]; brevenal 1.0 μg/mL water added 3 min. before PbTx-2 1.0 μg/mL water)",prolonging of life versus PbTx-2 only ([2]; brevenal 1.0 μg/mL water added 3 min. before an equal concentration of PbTx-2),death of fish exposed to brevenal alone ([2]; brevenal alone 1 μg/ml water),death of fish exposed to brevenal alone ([2]; brevenal alone 2 μg/ml water)
C=C/C=C\CC[C@H]1O[C@H]2CC[C@@]3(C)O[C@H]4[C@@H](O)C[C@@]5(C)O[C@@H](CC/C=C(C)/C(C)=C/C=O)[C@@H](C)C[C@@H]5O[C@@H]4C[C@@H]3O[C@@H]2CC[C@@]1(C)O [brevenal],1860 nM,~3690 nM,~80%,about 17 min.,~2.5 fold,did not die after 24 h,did not die after 24 h
di-O-Me brevenal,680 nM,~1350 nM,~80%,–,–,–,–
